From US20220056014A1, “PHENYLPYRROLIDINE COMPOUND AND USE THEREOF” (WUHAN HUMANWELL INNOVATIVE DRUG RESEARCH AND DEVELOPMENT …, priority 2018, published 2022) come the findings set out here.

Assay [1] deals with T1, PDE4B (Homo sapiens, UniProt Q07343).
T1 construct: purchased Enzo Life Sciences BML-SE522-0020
The assay can be described thus: PDE4B enzyme activity assay (PDE-Glo Phosphodiesterase Assay Kit). It counts as biochemical. Here is the method: (§1) For the previously synthesized compounds, the inhibitory activity of the compounds against PDE4B and against PDE4D was tested by using PDE-Glo Phosphodiesterase Assay Kit (promega, V1361). In short, in accordance with the instructions of the kit, a concentrated stock solution (10 mM) the compound to be tested was first prepared with DMSO solvent, and the concentrated stock solution was then diluted into 10× working solutions with a Reaction buffer provided in the kit. With the Reaction buffer, on ice, PDE4B enzyme (Enzo Life Sciences, BML-SE522-0020) was diluted to a concentration of 1 ng/μl to obtain a PDE4B enzyme working solution, and PDE4D enzyme (Enzo Life Sciences, BML-SE523-0020) was diluted to a concentration of 4 ng/μl to obtain a PDE4D enzyme working solution. 1.5 μl of the PDE4B working solution (or PDE4D working solution) and 1 μl of the compound working solution were added to wells of 384-well plate (Corning, CLS3707), and incubated with shaking at room temperature for 5 min, followed by adding 2.5 μl of cAMP (in Reaction buffer, 2 μM) per well, incubating with shaking at room temperature for 20 min. 2.5 μl/well of 1× Termination Buffer, and then 2.5 μl/well of 1× Detection Buffer were added, and further incubated with shaking at room temperature for 20 min. 10 μl/well of 1× Kinase-Glo was added, and the plate was incubated with shaking at room temperature for 10 min, and bioluminescence was measured with PheraStar instrument. The experimental results were plotted with GraphPad Prism software, and fitted to calculate IC50 of each compound.

Assay [2] relates to LPS-induced secretion of TNFα in human PBMCs. In words: LPS-induced secretion of TNFα in human PBMCs. It counts as cell-based. Particulars: 24 h, LPS 10 ng/ml. The procedure:
Extraction process of peripheral blood mononuclear cells (PBMCs): one unit of human peripheral blood concentrate (concentrated from 200 cc peripheral blood) was sucked and added with 0.9% saline until a total volume reached 120 ml, and mixed homogenously. 15 ml Lymphoprep™ was added into 50 ml centrifuge tube, and then 30 ml of diluted blood concentrate was carefully and slowly added thereto, allowing the diluted blood to be stacked on the layered solution and preventing the diluted blood from being mixed into the separated solutions or breaking the surface of the separated solution, wherein a ratio of Lymphoprep™ to the diluted blood was 1:2. The centrifuge tubes were balanced and placed in a horizontal centrifuge (eppendorf, 5810R), and centrifuged at 800 g and 20° C. for 20 min. The centrifuge tubes were carefully taken out. PBMCs were absorbed by directly inserting the Pasteur pipette deep into the buffy coat. The obtained PBMCs were gently pipetted with 3 times the volume of 0.9% normal saline or PBS (without calcium or magnesium ions) to mix homogenously. After that, the cells were centrifuged at 250 g and 20° C. for 10 min, the supernatant was removed to remove the platelets remaining in the cell suspension. The obtained cell pellet was resuspended in 20 ml of PBS, and counted using trypan blue.
Compound screening by using PBMCs: the PBMC suspension obtained above was centrifuged to remove PBS, then resuspended in complete medium (RPMI1640+10% FBS+1% P/S) and counted. 100 μL/well of the cells was seeded at 5×10^4/well. Each of the compounds to be screened was prepared as 4 times the final concentration, which was added to the cells at 50 μL/well. The compound was pre-incubated for 30 min in advance of being added to the cells. Meanwhile, control wells to which the compound was not added were provided. A final stimulation concentration of LPS was 10 ng/ml, and LPS was formulated as 4 times the final stimulation concentration, and added to the cells at 50 μL/well. Meanwhile, control wells, i.e., wells without LPS were provided. The cells were incubated for 24 h, and 10% of the supernatant was collected for detection. The obtained supernatant was detected using Invitrogen's Human TNF-α kit (REF: 88-7346-88).

The target in assay [3] is T2, PDE4D (Homo sapiens, UniProt Q08499).
T2 construct: purchased Enzo Life Sciences BML-SE523-0020
T2 sequence (Q08499 whole entry): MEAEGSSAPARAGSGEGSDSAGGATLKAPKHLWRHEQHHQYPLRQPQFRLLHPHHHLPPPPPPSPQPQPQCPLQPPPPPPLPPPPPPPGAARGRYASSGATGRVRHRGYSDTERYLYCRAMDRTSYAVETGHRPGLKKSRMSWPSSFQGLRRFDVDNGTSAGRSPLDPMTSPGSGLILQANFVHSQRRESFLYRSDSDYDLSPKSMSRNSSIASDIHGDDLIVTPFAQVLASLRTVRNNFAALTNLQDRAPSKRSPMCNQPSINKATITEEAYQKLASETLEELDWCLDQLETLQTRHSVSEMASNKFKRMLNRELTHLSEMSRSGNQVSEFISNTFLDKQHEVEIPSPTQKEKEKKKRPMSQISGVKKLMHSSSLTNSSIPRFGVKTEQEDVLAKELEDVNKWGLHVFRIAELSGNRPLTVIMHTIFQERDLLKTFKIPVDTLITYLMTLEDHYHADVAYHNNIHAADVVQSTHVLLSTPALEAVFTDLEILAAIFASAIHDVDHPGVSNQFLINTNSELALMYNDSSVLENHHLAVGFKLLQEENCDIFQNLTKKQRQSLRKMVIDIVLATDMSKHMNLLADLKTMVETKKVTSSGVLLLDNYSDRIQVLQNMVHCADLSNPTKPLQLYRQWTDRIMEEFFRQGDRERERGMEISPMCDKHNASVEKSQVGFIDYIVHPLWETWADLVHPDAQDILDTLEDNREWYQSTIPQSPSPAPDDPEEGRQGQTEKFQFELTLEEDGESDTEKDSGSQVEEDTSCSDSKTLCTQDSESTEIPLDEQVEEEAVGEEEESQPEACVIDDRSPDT
In words: PDE4D enzyme activity assay (PDE-Glo Phosphodiesterase Assay Kit). Format: biochemical. The procedure: as §1

pIC50: −log10 of the molar value.

T1 sequence (Q07343 whole entry): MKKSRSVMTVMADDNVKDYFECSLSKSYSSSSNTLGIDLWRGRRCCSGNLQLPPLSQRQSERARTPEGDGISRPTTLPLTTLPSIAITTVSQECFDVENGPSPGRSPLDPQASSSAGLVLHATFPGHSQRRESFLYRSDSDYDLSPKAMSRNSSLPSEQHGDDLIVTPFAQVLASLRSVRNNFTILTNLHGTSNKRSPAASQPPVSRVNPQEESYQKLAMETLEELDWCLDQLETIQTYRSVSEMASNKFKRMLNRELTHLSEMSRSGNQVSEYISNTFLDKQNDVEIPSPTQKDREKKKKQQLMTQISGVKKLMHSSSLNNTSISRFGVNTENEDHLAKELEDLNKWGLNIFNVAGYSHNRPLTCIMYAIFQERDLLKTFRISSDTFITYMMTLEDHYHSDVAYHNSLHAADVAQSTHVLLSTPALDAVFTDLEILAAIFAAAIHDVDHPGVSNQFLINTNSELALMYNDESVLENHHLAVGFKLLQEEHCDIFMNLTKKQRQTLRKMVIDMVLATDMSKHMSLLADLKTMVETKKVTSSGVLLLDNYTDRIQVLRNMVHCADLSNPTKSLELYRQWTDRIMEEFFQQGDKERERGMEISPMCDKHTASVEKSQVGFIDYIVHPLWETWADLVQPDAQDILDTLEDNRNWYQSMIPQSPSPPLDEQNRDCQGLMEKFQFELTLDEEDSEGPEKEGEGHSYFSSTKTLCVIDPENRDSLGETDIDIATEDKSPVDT

By pIC50 is commonly meant −log10 of the IC50, conventionally taken in molar units. Lower therefore signals a large IC50. Turning to `COc1ccc([C@@H]2CN(C(=O)[C@@H](O)CO)C[C@@]2(C)[C@@H](C)O)cc1OC1CN(c2ncc(C)cc2Cl)C1` [Compound 005, (S)-1-((3S,4S)-4-(3-((1-(3-chloro-5-methylpyridin-2-yl)azetidin-3-yl)oxy)-4-methoxyphenyl)-3-((R)-1-hydroxyethyl)-3-methylpyrrolidin-1-yl)-2,3-dihydroxypropan-1-one], in assay [1], the “inhibition of PDE4B (in words)” value was “effectively inhibit PDE4B” and the “selective inhibitory activity against PDE4B versus PDE4D, compared with the positive control compound (in words)” value (“selective inhibitory activity” below) was “significantly higher than that control compound”. In assay [2] (Homo sapiens, PBMC), this compound gave a pIC50 of 8.21.
Take `COc1ccc([C@@H]2CN(C(=O)[C@@H](O)CO)C[C@@]2(C)[C@@H](C)O)cc1OC1CN(c2ncc(Cl)cc2C)C1` [Compound 023, (S)-1-((3S,4S)-4-(3-((1-(5-chloro-3-methylpyridin-2-yl)azetidin-3-yl)oxy)-4-methoxyphenyl)-3-((R)-1-hydroxyethyl)-3-methylpyrrolidin-1-yl)-2,3-dihydroxypropan-1-one]: the pIC50 in assay [1] is 8.89; in assay [2] (Homo sapiens, PBMC) it was 8.27.
Consider `CCc1cnc(N2CC(Oc3cc([C@@H]4CN(C(=O)[C@@H](O)CO)C[C@@]4(C)[C@@H](C)O)ccc3OC)C2)cc1C` [Compound 030, (S)-1-((3S,4S)-4-(3-((1-(5-ethyl-4-methylpyridin-2-yl)azetidin-3-yl)oxy)-4-methoxyphenyl)-3-((R)-1-hydroxyethyl)-3-methylpyrrolidin-1-yl)-2,3-dihydroxypropan-1-one], for which, in assay [1], the “inhibition of PDE4B (in words)” value is on record as “effectively inhibit PDE4B” and the “selective inhibitory activity” value is “significantly higher than that control compound”.
On to `COc1ccc([C@@H]2CN(C(=O)[C@@H](O)CO)C[C@@]2(C)[C@@H](C)O)cc1OC1CN(c2ncc(Cl)cn2)C1` [Compound 018, (S)-1-((3S,4S)-4-(3-((1-(5-chloropyrimidin-2-yl)azetidin-3-yl)oxy)-4-methoxyphenyl)-3-((R)-1-hydroxyethyl)-3-methylpyrrolidin-1-yl)-2,3-dihydroxypropan-1-one], for which, in assay [1], the “inhibition of PDE4B (in words)” value is recorded as “effectively inhibit PDE4B” and the “selective inhibitory activity” value is “significantly higher than that control compound”.
Take `COc1ccc([C@@H]2CN(C(=O)[C@@H](O)CO)C[C@@]2(C)[C@@H](C)O)cc1OC1CN(c2ccc(F)c(C)n2)C1` [Compound 026, (S)-1-((3S,4S)-4-(3-((1-(5-fluoro-6-methylpyridin-2-yl)azetidin-3-yl)oxy)-4-methoxyphenyl)-3-((R)-1-hydroxyethyl)-3-methylpyrrolidin-1-yl)-2,3-dihydroxypropan-1-one]: the negative logarithm of the IC50 (pIC50) was 8.56 in assay [1] and 7.83 in assay [2] (Homo sapiens, PBMC).
For the compound `CCc1nc(N2CC(Oc3cc([C@@H]4CN(C(=O)[C@@H](O)CO)C[C@@]4(C)[C@@H](C)O)ccc3OC)C2)ccc1C` [Compound 027, (S)-1-((3S,4S)-4-(3-((1-(6-ethyl-5-methylpyridin-2-yl)azetidin-3-yl)oxy)-4-methoxyphenyl)-3-((R)-1-hydroxyethyl)-3-methylpyrrolidin-1-yl)-2,3-dihydroxypropan-1-one], the results for the pIC50 in assay [1] and in assay [3] were 7.84 and 7.61, respectively. Besides, in assay [1] (selectivity ratio), the “IC50 (PDE4D)/IC50 (PDE4B)” value is on record as 1.73.
As for `CCc1ccc(N2CC(Oc3cc([C@@H]4CN(C(=O)[C@@H](O)CO)C[C@@]4(C)[C@@H](C)O)ccc3OC)C2)nc1C` [Compound 029, (S)-1-((3S,4S)-4-(3-((1-(5-ethyl-6-methylpyridin-2-yl)azetidin-3-yl)oxy)-4-methoxyphenyl)-3-((R)-1-hydroxyethyl)-3-methylpyrrolidin-1-yl)-2,3-dihydroxypropan-1-one], in assay [1], the “inhibition of PDE4B (in words)” value is listed as “effectively inhibit PDE4B” and the “selective inhibitory activity” value is on record as “significantly higher than that control compound”.
`COc1ccc([C@@H]2CN(C(=O)[C@@H](O)CO)C[C@@]2(C)[C@@H](C)O)cc1OC1CN(c2ncc(C)cn2)C1` [Compound 016, (S)-2,3-dihydroxy-1-((3S,4S)-3-((R)-1-hydroxyethyl)-4-(4-methoxy-3-((1-(5-methylpyrimidin-2-yl)azetidin-3-yl)oxy)phenyl)-3-methylpyrrolidin-1-yl)propan-1-one]: in assay [1], the “inhibition of PDE4B (in words)” value was “effectively inhibit PDE4B” and the “selective inhibitory activity” value is on record as “significantly higher than that control compound”.
Take `COc1ccc([C@@H]2CN(C(=O)[C@@H](O)CO)C[C@@]2(C)[C@@H](C)O)cc1OC1CN(c2ccc(C#N)c(C)n2)C1` [Compound 013, 6-(3-(5-((3S,4S)-1-((S)-2,3-dihydroxypropanoyl)-4-((R)-1-hydroxyethyl)-4-methylpyrrolidin-3-yl)-2-methoxyphenoxy)azetidin-1-yl)-2-methylnicotinonitrile]: in assay [1], the “inhibition of PDE4B (in words)” value is listed as “effectively inhibit PDE4B” and the “selective inhibitory activity” value is reported as “significantly higher than that control compound”.
As for `COc1ccc(N2CC(Oc3cc([C@@H]4CN(C(=O)[C@@H](O)CO)C[C@@]4(C)[C@@H](C)O)ccc3OC)C2)cn1` [Compound 020, (S)-2,3-dihydroxy-1-((3S,4S)-3-((R)-1-hydroxyethyl)-4-(4-methoxy-3-((1-(6-methoxypyridin-3-yl)azetidin-3-yl)oxy)phenyl)-3-methylpyrrolidin-1-yl)propan-1-one], the pIC50 in assay [1] is 8.71; in assay [2] (Homo sapiens, PBMC), 8.03.
Consider `CCc1cnc(N2CC(Oc3cc([C@@H]4CN(C(=O)[C@@H](O)CO)C[C@@]4(C)[C@@H](C)O)ccc3OC)C2)nc1` [Compound 017, (S)-1-((3S,4S)-4-(3-((1-(5-ethylpyrimidin-2-yl)azetidin-3-yl)oxy)-4-methoxyphenyl)-3-((R)-1-hydroxyethyl)-3-methylpyrrolidin-1-yl)-2,3-dihydroxypropan-1-one], for which, in assay [1], the “inhibition of PDE4B (in words)” value is recorded as “effectively inhibit PDE4B” and the “selective inhibitory activity” value is reported as “significantly higher than that control compound”.
Take `COc1ccc([C@@H]2CN(C(=O)[C@@H](O)CO)C[C@@]2(C)[C@@H](C)O)cc1OC1CN(c2ncc(Cl)cc2F)C1` [Compound 024, (S)-1-((3S,4S)-4-(3-((1-(5-chloro-3-fluoropyridin-2-yl)azetidin-3-yl)oxy)-4-methoxyphenyl)-3-((R)-1-hydroxyethyl)-3-methylpyrrolidin-1-yl)-2,3-dihydroxypropan-1-one]: in assay [1], the “inhibition of PDE4B (in words)” value was “effectively inhibit PDE4B” and the “selective inhibitory activity” value is recorded as “significantly higher than that control compound”. This compound gave a pIC50 in assay [2] of 8.18.
In the case of `COc1ccc([C@@H]2CN(C(=O)[C@@H](O)CO)C[C@@]2(C)[C@@H](C)O)cc1OC1CN(c2cnc(C#N)cn2)C1` [Compound 019, 5-(3-(5-((3S,4S)-1-((S)-2,3-dihydroxypropanoyl)-4-((R)-1-hydroxyethyl)-4-methylpyrrolidin-3-yl)-2-methoxyphenoxy)azetidin-1-yl)pyrazine-2-carbonitrile], the pIC50 in assay [1] is 8.73.
